Results reported in publication PMC12830989, “Subcellular glycan-mannose receptor binding kinetics correlate with myeloid cell function” (Nature Communications, 2025).
Several values for one entry are separate records, joined by “and”; a condition that tells them apart may be missing. Equal values may be shown once. sCy5 = sulfo-Cy5

What was measured:
[1] = tested on: bone-marrow derived mouse dendritic cells (BMDCs); test: Glyco-PAINT-APP single-molecule glycan binding on live WT BMDC; conditions: for koff−1 / kon: Suppl. Fig 9, glycan SLP, median; for population of squares with binding events of high mobility (high diffusion coefficient) and low event density (kon), uniquely present for WT cells: WT BMDC versus MR-/- BMDC, Fig 4a, b; for event density, dwell time and diffusion coefficient after CytD treatment: Cytochalasin D treated versus untreated
Procedure: Single molecule imaging was performed on a Nikon Ti2 N-STORM system equipped with TIRF module, Z piezo element, perfect focus system for axial drift correction and an OkoLab incubator with temperature and CO2 controller (37 °C and 5% CO2) for live-cell imaging. Recordings were acquired using the 647 nm excitation laser (160 mW, 1.9 kW/cm^2). Upon laser excitation, fluorescence was collected by a 100x 1.49 NA oil-immersion objective, passed through a quad-band dichroic mirror (97335 Nikon), and detected by a Hamamatsu ORCA Flash 4.0 CMOS camera with 160 nm pixel size. The signal was collected using the following settings: 512 × 512 pixel region, no binning, pixel depth 16-bit, exposure time 50 ms, live-cell observation and 2D-STORM (lens out), zoom 1x, lens x0.4, and for live-cell observation at 37 °C, the correction collar was set to position 8160.
5 x 10^4 CHO-MR or 1 x 10^5 WT, MR^−/− BMDC or BMDM were seeded in 8-well glass-bottomed microscopy slides (Ibidi, 80827) in complete medium. After equilibration in the microscope incubator, fluorescent glycan was added at 5 nM for CHO-MR and 10 nM for BMDC or BMDM experiments. Then, cells were brought into focus using brightfield illumination and 2000 frames (at 50 ms intervals) were recorded within a single field-of-view at 40–60% of maximum 647 nm laser power using TIRF illumination. For indicated experiments, Cytochalasin D (Focus Biomolecules) was added to a final concentration of 10 µM for 30 min prior to acquisition.
Processing of recordings using Glyco-PAINT-APP was performed as described in a step-by-step procedure in the Supplementary Software Manual in the Supplementary Information and accompanying Supplementary Videos 1 and 2. For the TrackMate processing, a batch file (Experiment Info.csv) containing the experiment metadata and tracking parameters was created. Threshold values were set to 5, 10 or 15 such that no more than 1.500.000 spots were detected. Recordings were then processed in TrackMate using the ‘Run TrackMate Batch’ plugin provided by the Glyco-PAINT-APP. Through this plugin, spot detection and tracking by TrackMate[70] was performed as indicated in the batch file using the Simple LAP tracker algorithm with a maximum frame gap of 3, a max linking distance of 0.6 μm and a gap closing max distance of 1.2 μm. Tracks with only two spots were discarded. For the parameter sensitivity analysis, each tracking or spot detection was varied as indicated, whilst the others were kept at aforementioned values (Basis scenario).
With the Glyco-PAINT-APP utility ‘Generate Squares’, a grid of squares was overlaid, and kinetic properties for each square were calculated. Default parameters for grid processing are (deviations are mentioned in figure captions): Nr of Squares in row 20, Minimum Tracks to Calculate Tau 20, Min allowable R Squared 0.1, Min Required Density Ratio 2, Maximum Allowable Variability 10 and Neighbour Mode Free.
For every recording, a background track count was calculated by averaging the track count of the 40 (10% of the total number of squares) least dense squares. Only squares for which the track count exceeded the Min Required Density Ratio of 2 were considered (and the remaining ignored as background). For each square, the variability was calculated and only squares for which the variability was less than the Maximum Allowable Variability of 10 were considered. For squares meeting both the Minimum Required Density Ratio and Maximum Allowable Variability criteria, and containing at least the Minimum Tracks to Calculate Tau kinetic parameters, including kon, koff and MSD were calculated as in Riera et al.[10], or copied from the TrackMate Tracks table output (for velocity, displacement, and track duration).

WT BMDC (CD11c+) = test: Glycan SLP uptake by flow cytometry (phagocytic index), WT BMDC; type: cell-based, mouse; conditions: for phagocytic index: Fig 4d source data, BMDC incubated 1 h with probe, CD11c+ cells, per experiment, two technical replicates
Procedure: 2.5 x 10^5 WT, MR^−/− BMDC or BMDM were seeded after treatment with polarizing stimulus as described below in a 96 well v-bottom plate (Sarstedt, 82.1583001). The next day, Glycan SLP probes were added to the cells at 250 nM and incubated for 1 h at 37 °C. Active uptake was halted by addition of ice-cold PBS and washed twice with PBS + 2% FCS + 2 mM EDTA (300 rcf, 5 min., rt). Cells were stained with a selection of the following stains and antibodies: Zombie Yellow (Biolegend, 423103, 1:500), TruStain FcX (Biolegend, cat no 101319, 1:100), CD11c - eFluor450 (clone: N418, eBioscience, cat no 48-0114-82, dilution 1:200), CD206-AF488 or AF647 (clone: MR5D3, Biorad, MCA2235A488T, 1:20), CD86-PerCP (Biolegend, cat no 105025, clone GL-1, 1:200), F4/80-APC-Cy7 (Biolegend, cat no 123117, clone BM8, dilution 1:400), MHC-II-AF488 (Biolegend, cat no 107615, clone M5/114.15.2, dilution 1:1000) for 30 min. on ice. Then cells were washed twice with PBS + 2% FCS + 2 mM EDTA and acquired on Guava EasyCyte 12HT. For BMDM uptake and characterization, an identical procedure was followed but acquisition was performed on Sony ID7000 spectral flow cytometer. Analysis was performed using FlowJo v8. Phagocytic index (PI) was calculated according to equation 1. Statistical analysis and plotting were performed using GraphPad Prism V10.1 PI=%sCy5^+cellsxMFIsCy5^+cells−%sCy5^−cellsxMFIsCy5^−cells

Substance | koff−1 ([1]; BMDC + CytD) [ms] | kon ([1]; BMDC + CytD) [evts μm−2 sec−1] | koff−1 ([1]; BMDC) [ms] | kon ([1]; BMDC) [evts μm−2 sec−1] | population of squares with binding events of high mobility (high diffusion coefficient) and low event density (kon), uniquely present for WT cells [1] | phagocytic index (WT BMDC (CD11c+)) | event density, dwell time and diffusion coefficient after CytD treatment ([1]; BMDC) | uptake (phagocytic index) by BMDC (WT BMDC (CD11c+); 1 h incubation, sCy5 signal by flow cytometry)
Ac-Lys(Man)-Gly-Lys(Man)-TEG-Asp-Glu-Val-Ser-Gly-Leu-Glu-Gln-Leu-Glu-Ser-Ile-Ile-Asn-Phe-Glu-Lys-Leu-Ala-Ala-Ala-Ala-Ala-Lys(sCy5)-NH2 ({Ac-K(Man)-Gly-K(Man)-TEG}-DEVSGLEQLESIINFEKLAAAAAK(sCy5)-NH2) [2 Mono(2), bivalent monomannosylated OVA SLP with sulfo-Cy5] | 81 | 3 | 96 | 2.4 | most prominent | 468.878 and 326.94 and 575.997 and 867.184 and 474 and -18 |  | 
Ac-Lys(Man)-Lys(Man)-Lys(Man)-Lys(Man)-Lys(Man)-Lys(Man)-TEG-Asp-Glu-Val-Ser-Gly-Leu-Glu-Gln-Leu-Glu-Ser-Ile-Ile-Asn-Phe-Glu-Lys-Leu-Ala-Ala-Ala-Ala-Ala-Lys(sCy5)-NH2 ({Ac-K(Man)-K(Man)-K(Man)-K(Man)-K(Man)-K(Man)-TEG}-DEVSGLEQLESIINFEKLAAAAAK(sCy5)-NH2) [6 Mono(3), hexavalent monomannosylated OVA SLP with sulfo-Cy5] | 116 | 2 | 76 | 2.1 | most prominent | 351.961 and 267.849 and 647.297 and 867.13 and 676 and 415 |  | 
Ac-Lys(Man)-TEG-Asp-Glu-Val-Ser-Gly-Leu-Glu-Gln-Leu-Glu-Ser-Ile-Ile-Asn-Phe-Glu-Lys-Leu-Ala-Ala-Ala-Ala-Ala-Lys(sCy5)-NH2 ({Ac-K(Man)-TEG}-DEVSGLEQLESIINFEKLAAAAAK(sCy5)-NH2) [1 Mono(1), monovalent monomannosylated OVA SLP with sulfo-Cy5] | 98 | 4.3 | 87 | 0.9 | not | 18.2246 and 7.8718 and 19.8915 and 23.9776 and -43 and 24 |  | 
Ac-Lys(triMan)-Gly-Lys(triMan)-TEG-Asp-Glu-Val-Ser-Gly-Leu-Glu-Gln-Leu-Glu-Ser-Ile-Ile-Asn-Phe-Glu-Lys-Leu-Ala-Ala-Ala-Ala-Ala-Lys(sCy5)-NH2 (DEVSGLEQLESIINFEKLAAAAAK; two Lys(triMan), TEG, sulfo-Cy5, C-amide; printed: Asp-Glu-Val-Ser-Gly-Leu-Glu-Gln-Leu-Glu-Ser-Ile-Ile-Asn-Phe-Glu-Lys-Leu-Ala-Ala-Ala-Ala-Ala-Lys) [2 Tri(5), bivalent trimannosylated OVA SLP with sulfo-Cy5] | 112 | 7 | 69 | 1.1 | not | 739.67 and 711.569 and 1725.6 and 1909.99 and 2022 and 1371 | increased significantly | most effectively taken up
Ac-Lys(triMan)-Lys(triMan)-Lys(triMan)-Lys(triMan)-Lys(triMan)-Lys(triMan)-TEG-Asp-Glu-Val-Ser-Gly-Leu-Glu-Gln-Leu-Glu-Ser-Ile-Ile-Asn-Phe-Glu-Lys-Leu-Ala-Ala-Ala-Ala-Ala-Lys(sCy5)-NH2 (DEVSGLEQLESIINFEKLAAAAAK; six Lys(triMan), TEG, sulfo-Cy5, C-amide; printed: Asp-Glu-Val-Ser-Gly-Leu-Glu-Gln-Leu-Glu-Ser-Ile-Ile-Asn-Phe-Glu-Lys-Leu-Ala-Ala-Ala-Ala-Ala-Lys) [6 Tri(6), hexavalent trimannosylated OVA SLP with sulfo-Cy5] | 74 | 1.6 | 68 | 2.3 | most prominent | 418.118 and 415.333 and 1097.76 and 913.574 and 294 and 434 |  | 
Ac-Lys(triMan)-TEG-Asp-Glu-Val-Ser-Gly-Leu-Glu-Gln-Leu-Glu-Ser-Ile-Ile-Asn-Phe-Glu-Lys-Leu-Ala-Ala-Ala-Ala-Ala-Lys(sCy5)-NH2 (DEVSGLEQLESIINFEKLAAAAAK; Ac-Lys(triMan)-TEG, sulfo-Cy5, C-amide; printed: Asp-Glu-Val-Ser-Gly-Leu-Glu-Gln-Leu-Glu-Ser-Ile-Ile-Asn-Phe-Glu-Lys-Leu-Ala-Ala-Ala-Ala-Ala-Lys) [1 Tri(4), monovalent trimannosylated OVA SLP with sulfo-Cy5] | 124 | 1.5 | 88 | 1 |  | 866.48 and 744.547 and 660.373 and 1168.46 and 1459 and 1224 | increased significantly | 
